ChEMBL document CHEMBL1159131, “Structural modifications of 6-naphthalene-2-carboxylate retinoids” (Bioorg Med Chem Lett, 1996)
Calls of active or inactive are those of the source. The rule behind the calls is not given here.

Assays:
[1] = target: T1, Retinoic acid receptor beta (Homo sapiens) (UniProt P10826); test: Transactivation activity at retinoic acid receptor beta.
T1 sequence (whole entry): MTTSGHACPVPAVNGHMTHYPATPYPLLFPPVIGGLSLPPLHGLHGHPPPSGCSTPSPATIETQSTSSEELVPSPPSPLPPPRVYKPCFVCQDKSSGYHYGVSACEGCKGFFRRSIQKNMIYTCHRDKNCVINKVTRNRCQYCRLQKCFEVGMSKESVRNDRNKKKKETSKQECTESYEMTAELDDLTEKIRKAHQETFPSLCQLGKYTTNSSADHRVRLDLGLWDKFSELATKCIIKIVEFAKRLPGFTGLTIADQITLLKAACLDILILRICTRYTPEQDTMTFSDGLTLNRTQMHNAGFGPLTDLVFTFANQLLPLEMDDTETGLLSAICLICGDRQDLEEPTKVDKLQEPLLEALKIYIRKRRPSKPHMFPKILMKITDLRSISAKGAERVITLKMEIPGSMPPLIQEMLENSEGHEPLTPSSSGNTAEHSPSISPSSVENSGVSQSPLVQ

[2] = target: T1, Retinoic acid receptor beta (Homo sapiens); test: Maximum retinoic acid receptor (RAR)-beta transactivation activity relative to retinoic acid at 10e-6 M
[3] = target: T2, Retinoic acid receptor alpha (Homo sapiens) (UniProt P10276); test: Maximum retinoic acid receptor (RAR)-alpha transactivation activity relative to retinoic acid at 10e-6 M
T2 sequence (whole entry): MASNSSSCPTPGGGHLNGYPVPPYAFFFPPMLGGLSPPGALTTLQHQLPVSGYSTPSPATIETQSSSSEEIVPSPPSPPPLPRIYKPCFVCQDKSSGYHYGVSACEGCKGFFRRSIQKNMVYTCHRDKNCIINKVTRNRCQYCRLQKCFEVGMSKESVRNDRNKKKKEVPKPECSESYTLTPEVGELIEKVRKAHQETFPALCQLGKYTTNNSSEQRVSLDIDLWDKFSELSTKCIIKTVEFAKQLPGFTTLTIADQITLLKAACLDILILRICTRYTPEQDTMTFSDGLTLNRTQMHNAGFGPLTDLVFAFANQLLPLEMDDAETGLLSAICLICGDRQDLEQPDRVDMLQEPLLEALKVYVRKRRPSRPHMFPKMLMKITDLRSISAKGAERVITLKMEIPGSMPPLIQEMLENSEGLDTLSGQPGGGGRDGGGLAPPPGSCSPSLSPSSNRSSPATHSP

[4] = target: T2, Retinoic acid receptor alpha (Homo sapiens); test: Transcriptional activation activity against retinoic acid receptor RAR alpha
[5] = target: T2, Retinoic acid receptor alpha (Homo sapiens); test: Transcriptional activation activity against retinoic acid receptor RAR alpha; Not active
[6] = target: T1, Retinoic acid receptor beta (Homo sapiens); test: Transcriptional activation activity against retinoic acid receptor RAR beta; Not active
[7] = target: T3, Retinoic acid receptor gamma (Homo sapiens) (UniProt P13631); test: Transcriptional activation activity against retinoic acid receptor RAR gamma; Not active
T3 sequence (whole entry): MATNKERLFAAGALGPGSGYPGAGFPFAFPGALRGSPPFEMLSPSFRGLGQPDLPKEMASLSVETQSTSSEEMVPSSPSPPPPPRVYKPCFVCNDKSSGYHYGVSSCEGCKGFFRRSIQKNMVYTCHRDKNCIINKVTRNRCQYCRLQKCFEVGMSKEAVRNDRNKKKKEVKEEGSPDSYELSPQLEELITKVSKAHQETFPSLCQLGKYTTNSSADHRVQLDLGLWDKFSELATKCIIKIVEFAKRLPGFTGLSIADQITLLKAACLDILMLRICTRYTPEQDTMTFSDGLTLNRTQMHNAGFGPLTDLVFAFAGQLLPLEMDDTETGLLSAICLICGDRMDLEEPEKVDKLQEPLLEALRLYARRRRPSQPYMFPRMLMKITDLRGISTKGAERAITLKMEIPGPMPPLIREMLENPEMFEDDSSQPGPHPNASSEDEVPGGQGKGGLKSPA

EC50 ratio [1] | Max [2] | Max [3] | EC50 ratio [4] | EC50 ratio [5] | EC50 ratio [6] | EC50 ratio [7] | SMILES
25 | 81% | 26% | 25 | – | – | – | Cc1cc2c(cc1C(=O)c1ccc3cc(C(=O)O)ccc3c1)C(C)(C)CCC2(C)C
133 | 74% | 0% | – | inactive | – | – | CC1(C)CCC(C)(C)c2c1ccc(C(O)c1ccc3cc(C(=O)O)ccc3c1)c2F (stereo unspecified)
– | 0% | 0% | – | inactive | inactive | inactive | CC1(C)CCC(C)(C)c2cc(C(=O)c3ccc4cc(C(=O)O)ccc4c3O)ccc21
10 | 88% | 45% | 25 | – | – | – | CC1(C)CCC(C)(C)c2cc(Sc3ccc4cc(C(=O)O)ccc4c3)ccc21
40 | 96% | 42% | 38 | – | – | – | CC1(C)CCC(C)(C)c2cc([S+]([O-])/C=C/c3ccc(C(=O)O)cc3)ccc21 (stereo unspecified)
200 | 35% | 0% | – | inactive | – | – | CC1(C)CCC(C)(C)c2cc(S(=O)(=O)/C=C/c3ccc(C(=O)O)cc3)ccc21
100 | 96% | 0% | – | inactive | – | – | Cc1cc2c(cc1C(O)c1ccc3cc(C(=O)O)ccc3c1)C(C)(C)CCC2(C)C (stereo unspecified)
167 | 52% | 0% | – | inactive | – | – | CC1(C)CCC(C)(C)c2cc([S+]([O-])c3ccc4cc(C(=O)O)ccc4c3)ccc21 (stereo unspecified)
17 | 92% | 27% | 25 | – | – | – | CC1(C)CCC(C)(C)c2cc(Nc3ccc4cc(C(=O)O)ccc4c3)ccc21
20 | 120% | 56% | 63 | – | – | – | CC1(C)CCC(C)(C)c2cc(Oc3ccc4cc(C(=O)O)ccc4c3)ccc21
133 | 30% | 0% | – | inactive | – | – | CC1(C)CCC(C)(C)c2cc(C(O)c3ccc4cc(C(=O)O)ccc4c3)c(F)cc21 (stereo unspecified)
– | 77% | 0% | – | – | – | – | CC1(C)CCC(C)(C)c2cc(C(O)c3ccc4cc(C(=O)O)ccc4c3)ccc21 (stereo unspecified)
– | 0% | 0% | – | inactive | inactive | inactive | COc1c(C(=O)c2ccc3c(c2)C(C)(C)CCC3(C)C)ccc2cc(C(=O)O)ccc12
– | 0% | 0% | – | inactive | inactive | inactive | CC1(C)CCC(C)(C)c2c(F)cc(C(O)c3ccc4cc(C(=O)O)ccc4c3)cc21 (stereo unspecified)
15 | 81% | 34% | 25 | – | – | – | CC1(C)CCC(C)(C)c2cc(C(=O)c3ccc4cc(C(=O)O)ccc4c3)c(F)cc21
4 | 81% | 63% | 10 | – | – | – | CC1(C)CCC(C)(C)c2c(F)cc(C(=O)c3ccc4cc(C(=O)O)ccc4c3)cc21
– | 0% | 0% | – | inactive | inactive | inactive | COc1c(C(=O)c2ccc3cc(C(=O)O)ccc3c2)ccc2c1C(C)(C)CCC2(C)C
1.2 | – | – | 0.7 | – | – | – | CC1(C)CCC(C)(C)c2cc(C(=O)/C=C/c3ccc(C(=O)O)cc3)ccc21
14 | 61% | 23% | 8 | – | – | – | COc1cc2c(cc1C(=O)c1ccc3cc(C(=O)O)ccc3c1)C(C)(C)CCC2(C)C
133 | 32% | 0% | – | inactive | – | – | CC1(C)CCC(C)(C)c2cc(S(=O)(=O)c3ccc4cc(C(=O)O)ccc4c3)ccc21
0.8 | 158% | 118% | 1.3 | – | – | – | CC1(C)CCC(C)(C)c2cc(S/C=C/c3ccc(C(=O)O)cc3)ccc21

SMILES | EC50 ratio [1] | Max [2] | Max [3] | EC50 ratio [4] | EC50 ratio [5] | EC50 ratio [6] | EC50 ratio [7]
CC1(C)CCC(C)(C)c2cc(C(O)c3ccc4cc(C(=O)O)ccc4c3)c(O)cc21 (stereo unspecified) | – | 18% | 0% | – | inactive | inactive | –
CC1(C)CCC(C)(C)c2cc(C(=O)c3ccc4cc(C(=O)O)ccc4c3)c(O)cc21 | 7.5 | 76% | 44% | 25 | – | – | –
CC1(C)CCC(C)(C)c2c1cc(O)c(C(=O)c1ccc3cc(C(=O)O)ccc3c1)c2F | 6.7 | 87% | 46% | 100 | – | – | –
